Test results taken from patent US9259482B2, “Conjugates of polymers having a therapeutically active agent and an angiogenesis targeting moiety attached thereto and uses thereof in the treatment of angiogenesis related diseases” (Ramot at Tel-Aviv University Ltd., priority 2008, dated 2016).
Read-outs that look alike come from different tables or passages of the source. Non-standard residues stand in square brackets, D forms with d.

What was measured:
HUVEC [1] = test: Endothelial cell adhesion assay on fibrinogen coated plates; type: cell-based, human; conditions: for effect of free peptides on HUVEC adhesion: free peptide at 50 μM; for inhibition of HUVEC adhesion to fibrinogen: with a similar amount of PTX
Method: The ability of E-[c(RGDfk)2] and E-c(RGDfk) moieties (SEQ ID NOs: 2 and 41) in the conjugates to inhibit endothelial attachment to cellular matrix after conjugation, was assessed using an adhesion assay. Flat bottom 96-well culture plates (Nunc, Denmark) were coated with 0.5 μg/well fibrinogen overnight at 4° C. After washing three times with Phosphate buffered saline (PBS), the wells were blocked with 1% bovine serum albumin (BSA) for 1 hour at 37° C. and washed three times again with PBS. HUVEC were harvested in phosphate-buffered saline (137 mM NaCl, 2.7 mM KCl, 4.3 mM Na2HPO4, 1.4 mM KH2PO4, pH 7.3) with 2.5 mM EDTA and resuspended in EBM-2 serum-free media (Clonetics). HUVEC were incubated for 30 minutes, at room temperature, with the tested compounds. The treated HUVEC were plated at 5×10^4 cells per well and were allowed to attach for 1 hour at 37° C. After incubation, the unattached cells were removed by rinsing the wells with PBS. The attached cells were fixed with 3.7% formaldehyde, stained with 0.5% crystal violet and were imaged using Nikon TE2000E inverted microscope integrated with Nikon DS5 cooled CCD camera by 4× objective, brightfield technique. The number of attached cells was quantified with NIH ImageJ processing and analysis software. Non-specific binding was determined by adhesion of HUVEC cells, which were not incubated with any of the tested compounds, to BSA-coated plates.

HUVEC [2] = test: Migration assay of HUVEC towards VEGF; type: cell-based, human; conditions: equivalent concentrations of 100 nM PTX, conjugate with 5 mol % E-[c(RGDfk)2], 2.6 mol % PTX, FIG. 14
Method: The anti-angiogenesis activity of the conjugates was evaluated by examining the effect of the conjugates on the ability of HUVEC to migrate toward the Vascular Endothelial Growth Factor (VEGF).
Cell migration assay was performed using modified 8 μm Boyden chambers Transwells® (Costar Inc., USA) coated with 10 μg/ml fibronectin HUVEC (15×10^4 cells/100 μl) were challenged with the tested compounds that were added to the upper chamber of the transwells for 2 hours. Following incubation, cells were allowed to migrate to the underside of the chamber for 4 hours in the presence or absence of VEGF (20 ng/ml) in the lower chamber. Cells were then fixed and stained (Hema 3 Stain System; Fisher Diagnostics, USA). The stained migrated cells were imaged using Nikon TE2000E inverted microscope integrated with Nikon DS5 cooled CCD camera by 10× objective, brightfield illumination. Migrated cells from the captured images per membrane were counted using NIH image software. Migration was normalized to the percent of migration toward VEGF of HUVEC which were not incubated with any compound. The extent of migration is inversely proportional to the anti-angiogenesis activity of the compounds.

HUVEC [3] = test: cells; type: cell-based, human; conditions: for IC50: HUVEC
Method: (§1) The anti-angiogenesis and anti-proliferative activity of the conjugates described herein was evaluated by the effect of the conjugates on the proliferation of HUVEC, U87 and PANC02 cells.
(§2) HUVEC were plated onto 24-well plate (1×10^4 cells/well) in endothelial cell basal medium 2 (EBM-2; Cambrex, USA) supplemented with 5% fetal bovine serum (FBS). Following 24 hours of incubation (37° C.; 5% CO2) medium was replaced with Endothelial cell growth medium-2 (EGM-2; Cambrex, USA). U87 and PANC02 cells were plated onto 96 well plate (2×10^3 cells/well) in DMEM supplemented with 5% FBS and incubated for 24 hours (37° C.; 5% CO2). Following 24 hours of incubation the medium was replaced with DMEM containing 10% FBS. Cells were challenged with the tested compounds at serial concentrations for 72 hours. After incubation the number of HUVEC were counted by Coulter Counter and U87, and PANC02 cells were counted by XTT respectively.

αvβ3 integrin receptor = target: T1, αvβ3 integrin receptor (Homo sapiens, UniProt P05106+P06756); test: αvβ3 interaction with fluorescently labeled conjugates in HUVEC; type: cell-based
T1 construct: endogenous in cells; host or cells: HUVEC
T1 sequence (P06756 31-889 limits assumed): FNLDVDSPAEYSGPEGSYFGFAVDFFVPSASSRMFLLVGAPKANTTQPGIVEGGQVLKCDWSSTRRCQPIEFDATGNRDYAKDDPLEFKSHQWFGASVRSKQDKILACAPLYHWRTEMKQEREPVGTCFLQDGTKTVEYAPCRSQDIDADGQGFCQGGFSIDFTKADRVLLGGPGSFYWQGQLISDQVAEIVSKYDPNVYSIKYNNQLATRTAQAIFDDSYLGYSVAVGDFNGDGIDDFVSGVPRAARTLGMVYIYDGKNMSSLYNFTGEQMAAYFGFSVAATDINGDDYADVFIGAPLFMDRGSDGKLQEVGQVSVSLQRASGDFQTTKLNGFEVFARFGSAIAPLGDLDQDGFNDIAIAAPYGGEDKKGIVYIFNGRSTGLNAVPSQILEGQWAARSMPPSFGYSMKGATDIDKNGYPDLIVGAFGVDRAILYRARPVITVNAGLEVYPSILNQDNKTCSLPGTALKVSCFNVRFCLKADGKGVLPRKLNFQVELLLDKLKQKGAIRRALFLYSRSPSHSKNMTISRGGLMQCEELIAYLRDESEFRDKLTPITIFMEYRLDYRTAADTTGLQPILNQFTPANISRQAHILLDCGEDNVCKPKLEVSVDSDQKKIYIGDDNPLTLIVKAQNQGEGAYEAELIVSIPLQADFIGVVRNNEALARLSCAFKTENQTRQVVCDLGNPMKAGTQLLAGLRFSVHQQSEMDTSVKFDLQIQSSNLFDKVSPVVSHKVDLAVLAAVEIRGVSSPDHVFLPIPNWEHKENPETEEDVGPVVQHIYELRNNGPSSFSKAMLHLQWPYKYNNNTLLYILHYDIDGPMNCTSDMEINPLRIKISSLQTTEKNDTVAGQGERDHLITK
T1 sequence (P06756 891-1048 limits assumed): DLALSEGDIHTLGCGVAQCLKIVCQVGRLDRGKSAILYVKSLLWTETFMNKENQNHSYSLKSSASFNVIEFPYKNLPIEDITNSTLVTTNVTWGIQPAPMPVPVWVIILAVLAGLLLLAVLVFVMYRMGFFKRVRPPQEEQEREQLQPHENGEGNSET
T1 sequence (P05106 27-788): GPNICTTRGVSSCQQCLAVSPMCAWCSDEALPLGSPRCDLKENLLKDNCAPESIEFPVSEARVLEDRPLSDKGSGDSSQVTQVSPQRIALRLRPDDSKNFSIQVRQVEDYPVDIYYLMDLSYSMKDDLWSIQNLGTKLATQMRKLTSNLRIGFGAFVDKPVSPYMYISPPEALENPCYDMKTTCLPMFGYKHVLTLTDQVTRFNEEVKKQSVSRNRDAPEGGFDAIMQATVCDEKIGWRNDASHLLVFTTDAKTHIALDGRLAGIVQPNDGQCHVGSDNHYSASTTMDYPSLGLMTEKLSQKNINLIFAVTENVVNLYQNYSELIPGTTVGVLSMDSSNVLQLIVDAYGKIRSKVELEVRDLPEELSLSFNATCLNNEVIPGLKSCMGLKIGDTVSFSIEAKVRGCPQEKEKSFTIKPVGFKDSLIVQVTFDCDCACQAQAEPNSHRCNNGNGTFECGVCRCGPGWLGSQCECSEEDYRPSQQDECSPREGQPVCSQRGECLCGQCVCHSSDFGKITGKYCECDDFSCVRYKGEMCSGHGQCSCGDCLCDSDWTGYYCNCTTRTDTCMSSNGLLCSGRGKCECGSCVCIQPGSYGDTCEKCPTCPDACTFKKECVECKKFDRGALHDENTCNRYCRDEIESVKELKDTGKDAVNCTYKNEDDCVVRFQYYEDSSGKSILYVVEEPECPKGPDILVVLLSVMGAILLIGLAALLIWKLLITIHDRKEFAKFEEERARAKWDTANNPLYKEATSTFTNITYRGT
Method: A fluorescence probe, Oregon Green-cadaverine (OG), was conjugated to PGA conjugates through the free carboxylic groups (see Example 5 for synthesis description), in order to study the cellular uptake and trafficking.
HUVEC were plated onto 6 mm plates (5×10^5 cells/plate) in EBM-2 (Cambrex, USA) supplemented with 5% FBS. Following 24 hours of incubation (37° C.; 5% CO2), cells were challenged with either PGA-OG, PGA-c(RADfk)-OG (SEQ ID NO: 24) or PGA-E-[c(RGDfk)2]-OG (SEQ ID NO:25) diluted in EGM-2 medium for 5, 10, 15, 30 or 60 minutes. Cells were then washed in PBS (×3), harvested with PBS containing 2.5 mM EDTA and analyzed with the ImageStream 100 imaging flow cytometer (Amnis). Analysis was performed using IDEAS software.

[4] = tested on: U87 human glioblastoma cells; test: Cell proliferation assay, U87; type: cell-based
Method: as §1, §2

[5] = tested on: PANC02 murine pancreatic tumor cells; test: Cell proliferation assay, PANC02; type: cell-based
Method: as §1, §2

HUVEC [6] = test: Capillary-like tube formation assay; type: cell-based, human; conditions: equivalent concentrations of 10 nM (PTX) and 19 nM (E-[c(RGDfk)2]), conjugate with 5 mol % E-[c(RGDfk)2], 2.6 mol % PTX, FIG. 16B
Method: The anti-angiogenesis activity of the conjugates was evaluated by the effect of the conjugates on the ability of HUVEC cells to form capillary-like tube structures.
The surface of 24-well plates was coated with Matrigel matrix (50 μl/well) (BD Biosciences, USA) on ice and was then allowed to polymerize at 37° C. for 30 minutes. HUVEC (3×10^4 cells) were challenged with the tested compounds, and were seeded on coated plates in the presence of complete EGM-2 medium. After 8 hours of incubation (37° C.; 5% CO2), wells were imaged using Nikon TE2000E inverted microscope integrated with Nikon DS5 cooled CCD camera by 4× objective, brightfield technique. During the tube formation assay endothelial cells directionally migrate to align, branch and form polygonal networks (i.e. tube like structures). The extent of capillary-like tube structures is inversely proportional to the anti-angiogenesis activity of the compounds.

With c[Arg-Gly-Asp-Phe-Lys] [E-c(RGDfk)] the “effect of free peptides on HUVEC adhesion” value (shortened to “effect of free peptides”) (HUVEC [1]) was “completely abrogated HUVEC adhesion”.

“c(RADfk): inactive cyclic peptide RAD, negative control (SEQ ID NO:40) (cyclo(RAD[dF]K); not fully specified (residue 5))” was tested, and the “inhibition of the migration of HUVEC towards VEGF” value (HUVEC [2]) was “about 30%”, the “effect on HUVEC proliferation” value (HUVEC [3]; FIG. 12A) was “no effect even at those high concentrations” and the “effect of free peptides” value (HUVEC [1]) was “no effect”.

In the case of “PGA-c(RADfk)-OG (cyclo(RAD[dF]K); not fully specified (residue 5); also: polyglutamic acid polymer conjugate, Oregon Green label)”, the “time at which conjugate-cell adherence was first observed” value (αvβ3 integrin receptor; ImageStream 100 imaging flow cytometer) was 15 min and the “extent of binding / uptake by HUVEC” value (αvβ3 integrin receptor; OG fluorescence, FIGS. 11B, 11C) was “bound to a much lesser extent”.

`CC(=O)O[C@H]1C(=O)[C@@]2(C)[C@H]([C@H](OC(=O)c3ccccc3)[C@]3(O)C[C@H](OC(=O)[C@H](O)[C@@H](NC(=O)c4ccccc4)c4ccccc4)C(C)=C1C3(C)C)[C@]1(OC(C)=O)CO[C@@H]1C[C@@H]2O` [PTX, Paclitaxel] showed an IC50 ([4]; Homo sapiens, U87, 72 hours, bis-cyclic RGD compounds (X = 2), NA = did not reach IC50 in the concentrations used, 'a -- b' = bell-shaped curve, read-out: IC50 (nM) of PGA- PTX-E-[c(RGDfk)2] (SEQ ID NO: 18) 5 mol % PTX, 3.9 mol % RGD) of 0.045 nM, an IC50 ([4]; Homo sapiens, nM PTX, equivalent doses, FIG. 12B, read-out: IC50 of U87 proliferation) of roughly 0.01 nM and an inhibition at 0.1 µM (HUVEC [2]; Homo sapiens, HUVEC) of roughly 55%. It also gave an IC50 (HUVEC [3]; Homo sapiens, nM PTX, FIG. 12A, read-out: IC50 of HUVEC proliferation) of roughly 0.01 nM, an IC50 (HUVEC [3]; Homo sapiens, 72 hours, bis-cyclic RGD compounds (X = 2), NA = did not reach IC50 in the concentrations used, 'a -- b' = bell-shaped curve, read-out: IC50 (nM) of PGA- PTX-E-[c(RGDfk)2] (SEQ ID NO: 18) 2.6 mol % PTX, 5 mol % RGD) of 0.01 nM and an IC50 (HUVEC [3]; Homo sapiens, 72 hours, bis-cyclic RGD compounds (X = 2), NA = did not reach IC50 in the concentrations used, 'a -- b' = bell-shaped curve, read-out: IC50 (nM) of PGA- PTX-E-[c(RGDfk)2] (SEQ ID NO: 18) 5 mol % PTX, 3.9 mol % RGD) of 0.009 nM. For the same molecule, the IC50 (HUVEC [3]; Homo sapiens, 72 hours, experiment with monocyclic RGD compounds (X = 1), NA = did not reach IC50 in the concentrations used, 'a -- b' = bell-shaped curve, read-out: IC50 (nM) of PGA- PTX-E-c(RGDfk) (SEQ ID NO: 16) 2.1 mol % PTX, 5 mol % RGD) was 0.0085 nM, the IC50 ([5]; Mus musculus, Panc02, nM PTX, equivalent doses, FIG. 12C, read-out: IC50 of PANC02 proliferation) was roughly 200 nM and the IC50 ([5]; Mus musculus, PANC02, 72 hours, bis-cyclic RGD compounds (X = 2), NA = did not reach IC50 in the concentrations used, read-out: IC50 (nM) of PGA- PTX-E-[c(RGDfk)2] (SEQ ID NO: 18) 5 mol % PTX, 3.9 mol % RGD) was 200 nM. The inhibition at 0.01 µM (HUVEC [6]; Homo sapiens, HUVEC, read-out: inhibition of the formation of tubular structures of HUVEC) was roughly 50% and the “effect on endothelial cell adhesion” value (HUVEC [1]; free PTX, PGA and combinations, FIG. 15) was “negligent effect”.

For `N=C(N)NCCC[C@@H]1NC(=O)[C@H](CCCCNC(=O)CC[C@H](N)C(=O)NCCCC[C@@H]2NC(=O)[C@@H](Cc3ccccc3)NC(=O)[C@H](CC(=O)O)NC(=O)CNC(=O)[C@H](CCCNC(=N)N)NC2=O)NC(=O)[C@@H](Cc2ccccc2)NC(=O)[C@H](CC(=O)O)NC(=O)CNC1=O` [E-[c(RGDfk)2]], the “inhibition of the migration of HUVEC towards VEGF” value (HUVEC [2]) was “about 30%”, the “effect on HUVEC proliferation” value (HUVEC [3]; FIG. 12A) was “only at high concentrations” and the “effect of free peptides” value (HUVEC [1]) was “completely abrogated HUVEC adhesion”.

Work on “PGA-c(RADfk) (cyclo(RAD[dF]K); not fully specified (residue 5); also: polyglutamic acid polymer conjugate)” yielded an IC50 (HUVEC [3]; 72 hours, bis-cyclic RGD compounds (X = 2), NA = did not reach IC50 in the concentrations used, 'a -- b' = bell-shaped curve, read-out: IC50 (nM) of PGA- PTX-E-[c(RGDfk)2] (SEQ ID NO: 18) 2.6 mol % PTX, 5 mol % RGD) of 5000 nM and an IC50 (HUVEC [3]; 72 hours, experiment with monocyclic RGD compounds (X = 1), NA = did not reach IC50 in the concentrations used, 'a -- b' = bell-shaped curve, read-out: IC50 (nM) of PGA- PTX-E-c(RGDfk) (SEQ ID NO: 16) 2.1 mol % PTX, 5 mol % RGD) of 1000 nM.

“PGA-PTX-c(RADfk) (cyclo(RAD[dF]K); not fully specified (residue 5); also: polyglutamic acid polymer conjugate, paclitaxel conjugate)” was tested, and the IC50 ([4]; U87, 72 hours, bis-cyclic RGD compounds (X = 2), NA = did not reach IC50 in the concentrations used, 'a -- b' = bell-shaped curve, read-out: IC50 (nM) of PGA- PTX-E-[c(RGDfk)2] (SEQ ID NO: 18) 5 mol % PTX, 3.9 mol % RGD) was 65 nM, the IC50 ([5]; PANC02, 72 hours, bis-cyclic RGD compounds (X = 2), NA = did not reach IC50 in the concentrations used, read-out: IC50 (nM) of PGA- PTX-E-[c(RGDfk)2] (SEQ ID NO: 18) 5 mol % PTX, 3.9 mol % RGD) was 2600 nM and the IC50 ([5]; nM PTX, equivalent doses, FIG. 12C, read-out: IC50 of PANC02 proliferation) was roughly 2000 nM. The “inhibition of the formation of tubular structures of HUVEC” value (HUVEC [6]) was “about 40%”, the “inhibition of HUVEC adhesion to fibrinogen” value (HUVEC [1]; control compared to bis-cyclic RGD-bearing conjugates) was roughly 20% and the “inhibition of HUVEC adhesion to fibrinogen” value (HUVEC [1]; control compared to monocyclic RGD-bearing conjugate) was roughly 50%.
